Results from article PMC4297251 (Investigational new drugs, 2014).

Tests used:
clinical = conditions: human, in vivo; for AUC(0-inf): AUC0→∞
refractory solid tumors = assay: Antitumor activity by RECIST 1.1; format: in vivo, human; conditions: 30 patients, all dose levels, with capecitabine
multiple animal models = conditions: oral dosing; cited from earlier work
[1] = tested on: patients with refractory solid tumors; assay: Phase I dose escalation of RO4929097 with capecitabine: toxicity / DLT; format: in vivo
[2] = n=30, worst grade, at least possibly related, with capecitabine

CC(C)(C(=O)NCC(F)(F)C(F)(F)F)C(=O)N[C@@H]1C(=O)Nc2ccccc2-c2ccccc21 [RO4929097]
Cmax (clinical; 20 mg): 0.3583 µg/mL
Half Life (clinical; 20 mg): 30.7 h
Cmax (clinical; 20 mg, Cmax): 0.646 µg/mL
half-life (clinical; 20 mg): 36.2 h
AUC0→∞ (clinical; 30 mg): 16.6094 µg·h/mL
Cmax (clinical; 30 mg): 0.6685 µg/mL
Vd (clinical; 30 mg): 88.7 L/h
AUC(0-inf) (clinical; 30 mg): 25.9 µg·h/mL
Cmax (clinical; 30 mg, Cmax): 0.656 µg/mL
Vd (clinical; 30 mg, Vd): 53 L
Half Life (clinical; 45 mg): 9.5 h
Vd (clinical; 45 mg): 118.9 L/h
half-life (clinical; 45 mg): 17.8 h
Vd (clinical; 45 mg, Vd): 63.3 L
AUC0→∞ (clinical; 68 mg): 18.0507 µg·h/mL
Cmax (clinical; 68 mg): 1.0117 µg/mL
Half Life (clinical; 68 mg): 16.0 h
AUC(0-inf) (clinical; 68 mg): 34.4 µg·h/mL
Cmax (clinical; 68 mg, Cmax): 1.64 µg/mL
half-life (clinical; 68 mg): 15.9 h
AUC0→∞ (clinical; 100 mg): 32.7486 µg·h/mL
Cl (clinical; 100 mg): 3953.9 mL/h
Cmax (clinical; 100 mg): 1.4732 µg/mL
Half Life (clinical; 100 mg): 19.8 h
AUC(0-inf) (clinical; 100 mg): 51.9 µg·h/mL
clearance (clinical; 100 mg, Cl): 43.3 mL/min
Cmax (clinical; 100 mg, Cmax): 2.39 µg/mL
half-life (clinical; 100 mg): 13.4 h
Vd (clinical; 150 mg): 168.2 L/h
Vd (clinical; 150 mg, Vd): 154 L
progressive disease as best response, patients (refractory solid tumors): 60%
stable disease as best response, patients (refractory solid tumors; after three or more cycles): 30%
efficacy maintained post-dosing (multiple animal models): up to 90 days
Anemia, Grade 1 ([1]; human, in vivo): 0 n (%)
Anemia, Grade 2 ([1]; human, in vivo): 2 (7) n (%)
Anemia, Grade 3 ([1]; human, in vivo): 1 (3) n (%)
Anemia, Grade 4 ([1]; human, in vivo): 0 n (%)
Anemia, Overall ([1]; human, in vivo): 3 (10) n (%)
Anorexia, Grade 1 ([1]; human, in vivo): 5 (17) n (%)
Anorexia, Grade 2 ([1]; human, in vivo): 2 (7) n (%)
Anorexia, Grade 3 ([1]; human, in vivo): 0 n (%)
Anorexia, Grade 4 ([1]; human, in vivo): 0 n (%)
Anorexia, Overall ([1]; human, in vivo): 7 (23) n (%)
Chills, Grade 1 ([1]; human, in vivo): 3 (10) n (%)
Chills, Grade 2 ([1]; human, in vivo): 0 n (%)
Chills, Grade 3 ([1]; human, in vivo): 0 n (%)
Chills, Grade 4 ([1]; human, in vivo): 0 n (%)
Chills, Overall ([1]; human, in vivo): 3 (10) n (%)
Diarrhea, Grade 1 ([1]; human, in vivo): 9 (30) n (%)
Diarrhea, Grade 2 ([1]; human, in vivo): 4 (13) n (%)
Diarrhea, Grade 3 ([1]; human, in vivo): 1 (3) n (%)
Diarrhea, Grade 4 ([1]; human, in vivo): 0 n (%)
Diarrhea, Overall ([1]; human, in vivo): 14 (47) n (%)
Dry skin, Grade 1 ([1]; human, in vivo): 5 (17) n (%)
Dry skin, Grade 2 ([1]; human, in vivo): 0 n (%)
Dry skin, Grade 3 ([1]; human, in vivo): 0 n (%)
Dry skin, Grade 4 ([1]; human, in vivo): 0 n (%)
Dry skin, Overall ([1]; human, in vivo): 5 (17) n (%)
Fatigue, Grade 1 ([1]; human, in vivo): 6 (20) n (%)
Fatigue, Grade 2 ([1]; human, in vivo): 8 (27) n (%)
Fatigue, Grade 3 ([1]; human, in vivo): 2 (7) n (%)
Fatigue, Grade 4 ([1]; human, in vivo): 0 n (%)
Fatigue, Overall ([1]; human, in vivo): 16 (53) n (%)
Headache, Grade 1 ([1]; human, in vivo): 9 (30) n (%)
Headache, Grade 2 ([1]; human, in vivo): 0 n (%)
Headache, Grade 3 ([1]; human, in vivo): 0 n (%)
Headache, Grade 4 ([1]; human, in vivo): 0 n (%)
Headache, Overall ([1]; human, in vivo): 9 (30) n (%)
Hypokalemia, Grade 1 ([1]; human, in vivo): 1 (3) n (%)
Hypokalemia, Grade 2 ([1]; human, in vivo): 1 (3) n (%)
Hypokalemia, Grade 3 ([1]; human, in vivo): 2 (7) n (%)
Hypokalemia, Grade 4 ([1]; human, in vivo): 0 n (%)
Hypokalemia, Overall ([1]; human, in vivo): 4 (13) n (%)
Hypophosphatemia, Grade 1 ([1]; human, in vivo): 0 n (%)
Hypophosphatemia, Grade 2 ([1]; human, in vivo): 8 (27) n (%)
Hypophosphatemia, Grade 3 ([1]; human, in vivo): 6 (20) n (%)
Hypophosphatemia, Grade 4 ([1]; human, in vivo): 0 n (%)
Hypophosphatemia, Overall ([1]; human, in vivo): 14 (47) n (%)
Nausea, Grade 1 ([1]; human, in vivo): 17 (57) n (%)
Nausea, Grade 2 ([1]; human, in vivo): 2 (7) n (%)
Nausea, Grade 3 ([1]; human, in vivo): 2 (7) n (%)
Nausea, Grade 4 ([1]; human, in vivo): 0 n (%)
Nausea, Overall ([1]; human, in vivo): 21 (70) n (%)
Pain in legs, Grade 1 ([1]; human, in vivo): 4 (13) n (%)
Pain in legs, Grade 2 ([1]; human, in vivo): 0 n (%)
Pain in legs, Grade 3 ([1]; human, in vivo): 0 n (%)
Pain in legs, Grade 4 ([1]; human, in vivo): 0 n (%)
Pain in legs, Overall ([1]; human, in vivo): 4 (13) n (%)
Palmar-plantar erythrodysesthesia syndrome, Grade 1 ([1]; human, in vivo): 3 (10) n (%)
Palmar-plantar erythrodysesthesia syndrome, Grade 2 ([1]; human, in vivo): 1 (3) n (%)
Palmar-plantar erythrodysesthesia syndrome, Grade 3 ([1]; human, in vivo): 1 (3) n (%)
Palmar-plantar erythrodysesthesia syndrome, Grade 4 ([1]; human, in vivo): 0 n (%)
Palmar-plantar erythrodysesthesia syndrome, Overall ([1]; human, in vivo): 5 (17) n (%)
QTc prolongation, Grade 1 ([1]; human, in vivo): 5 (17) n (%)
QTc prolongation, Grade 2 ([1]; human, in vivo): 1 (3) n (%)
QTc prolongation, Grade 3 ([1]; human, in vivo): 0 n (%)
QTc prolongation, Grade 4 ([1]; human, in vivo): 0 n (%)
QTc prolongation, Overall ([1]; human, in vivo): 6 (20) n (%)
Taste alteration, Grade 1 ([1]; human, in vivo): 5 (17) n (%)
Taste alteration, Grade 2 ([1]; human, in vivo): 0 n (%)
Taste alteration, Grade 3 ([1]; human, in vivo): 0 n (%)
Taste alteration, Grade 4 ([1]; human, in vivo): 0 n (%)
Taste alteration, Overall ([1]; human, in vivo): 5 (17) n (%)
Vomiting, Grade 1 ([1]; human, in vivo): 11 (37) n (%)
Vomiting, Grade 2 ([1]; human, in vivo): 1 (3) n (%)
Vomiting, Grade 3 ([1]; human, in vivo): 2 (7) n (%)
Vomiting, Grade 4 ([1]; human, in vivo): 0 n (%)
Vomiting, Overall ([1]; human, in vivo): 14 (47) n (%)
Weight loss, Grade 1 ([1]; human, in vivo): 3 (10) n (%)
Weight loss, Grade 2 ([1]; human, in vivo): 1 (3) n (%)
Weight loss, Grade 3 ([1]; human, in vivo): 0 n (%)
Weight loss, Grade 4 ([1]; human, in vivo): 0 n (%)
Weight loss, Overall ([1]; human, in vivo): 4 (13) n (%)
diarrhea, patients ([1]; human, in vivo): 47%
fatigue, patients ([1]; human, in vivo): 53%
hypophosphatemia, patients ([1]; human, in vivo): 47%
nausea, patients ([1]; human, in vivo): 70%
vomiting, patients ([1]; human, in vivo): 47%
Anemia, Grade 5 [1, 2]: 0 n (%)
Anorexia, Grade 5 [1, 2]: 0 n (%)
Chills, Grade 5 [1, 2]: 0 n (%)
Diarrhea, Grade 5 [1, 2]: 0 n (%)
Dry skin, Grade 5 [1, 2]: 0 n (%)
Fatigue, Grade 5 [1, 2]: 0 n (%)
Headache, Grade 5 [1, 2]: 0 n (%)
Hypokalemia, Grade 5 [1, 2]: 0 n (%)
Hypophosphatemia, Grade 5 [1, 2]: 0 n (%)
Nausea, Grade 5 [1, 2]: 0 n (%)
Pain in legs, Grade 5 [1, 2]: 0 n (%)
Palmar-plantar erythrodysesthesia syndrome, Grade 5 [1, 2]: 0 n (%)
QTc prolongation, Grade 5 [1, 2]: 0 n (%)
Taste alteration, Grade 5 [1, 2]: 0 n (%)
Vomiting, Grade 5 [1, 2]: 0 n (%)
Weight loss, Grade 5 [1, 2]: 0 n (%)
